Results reported in patent publication USRE30413E, “Bleomycinic acid and process for preparing thereof” (Zaidan Hojin Biseibutsu Kagaku Kenkyu Kai, priority 1971, dated 1980).
Like-named read-outs stand apart in the source and are kept apart here. Blank lines part the entries; values can stand above or below the compound they belong to.

Key:
Mycobacterium 607 = assay: cup test, antimicrobial activity to Mycobacterium 607; format: cell-based; details: standard bleomycin A2 = 1000 μ/mg
Source text: The endpoint of the hydrolysis reaction can be determined by a reaction in antimicrobial activity of the bleomycin substrate as measured by conventional cup tests using Mycobacterium 607, or by a change in the Rf value during thin layer chromatography.

[1] = solubility of the hydrochloride in solvents; format: physicochemical
HeLa (S3 bb cell line) = details: third day after addition
Source text: wherein the inhibitory effect= [formula] Co: relative number of cell on the first day t3 : relative number of cell on the third day after the addition of a bleomycin (3 mcg/ml in final)
C3 : relative number of cell in negative control on the third day

ICR-JCL male mice = details: for Total, degree of fibrosis ++: number of mice with grade ++, fourth Total column; for Total, degree of fibrosis -: number of mice with grade -, first Total column; for Total, degree of fibrosis ±: number of mice with grade ±, second Total column
Source text: The mice were bred for 5 weeks after the final administration and were then dissected. The right and left lungs were observed by microscopic examination.

Compound: Cc1c(N)nc([C@H](CC(N)=O)NC[C@H](N)C(N)=O)nc1C(=O)N[C@H](C(=O)N[C@H](C)[C@@H](O)[C@H](C)C(=O)N[C@H](C(=O)NCCc1nc(-c2nc(C(=O)NCCC[S+](C)C)cs2)cs1)[C@@H](C)O)[C@@H](O[C@@H]1O[C@@H](CO)[C@@H](O)[C@H](O)[C@@H]1O[C@H]1O[C@H](CO)[C@@H](O)[C@H](OC(N)=O)[C@@H]1O)c1c[nH]cn1.[Br-] [bleomycin A2, 3-dimethylsulfopropylamino-bleomycin]
antimicrobial activity to Mycobacterium 607 (Mycobacterium 607): 1000 μ/mg

solubility ([1]; acetic acid): sparingly soluble
solubility ([1]; acetone): insoluble
solubility ([1]; dimethylsulfoxide): sparingly soluble
solubility ([1]; ethanol): insoluble
solubility ([1]; ether): insoluble
solubility ([1]; ethyl acetate): insoluble
solubility ([1]; methanol): sparingly soluble
solubility ([1]; water): soluble
Compound: hydrochloride of bleomycinic acid

Compound: Cc1c(N)nc([C@H](CC(N)=O)NC[C@H](N)C(N)=O)nc1C(=O)N[C@H](C(=O)N[C@H](C)[C@@H](O)[C@H](C)C(=O)N[C@H](C(=O)NCCc1nc(-c2nc(C(=O)NCCCCN=C(N)N)cs2)cs1)[C@@H](C)O)[C@@H](O[C@@H]1O[C@@H](CO)[C@@H](O)[C@H](O)[C@@H]1O[C@H]1O[C@H](CO)[C@@H](O)[C@H](OC(N)=O)[C@@H]1O)c1cnc[nH]1 [bleomycin B2, 4-guanidinobutylamino-bleomycin]
Inhibitory effect (HeLa (S3 bb cell line); 1.5 mcg/ml): 33
Inhibitory effect (HeLa (S3 bb cell line); 3 mcg/ml): 64
Inhibitory effect (cell culture of Yoshida; 0.625 mcg/ml): 8.6
Inhibitory effect (cell culture of Yoshida; 1.25 mcg/ml): 34.0
Inhibitory effect (cell culture of Yoshida; 2.5 mcg/ml): 56.0
Total, degree of fibrosis ++ (ICR-JCL male mice; lung L): 1
Total, degree of fibrosis - (ICR-JCL male mice; lung L): 5
Total, degree of fibrosis ± (ICR-JCL male mice; lung L): 1
Total, degree of fibrosis ++ (ICR-JCL male mice; lung R): 0
Total, degree of fibrosis - (ICR-JCL male mice; lung R): 4
Total, degree of fibrosis ± (ICR-JCL male mice; lung R): 3

Compound: benzylamino-bleomycin
Inhibitory effect (HeLa (S3 bb cell line); 1.5 mcg/ml): 38
Inhibitory effect (HeLa (S3 bb cell line); 3 mcg/ml): 73
Inhibitory effect (HeLa (S3 bb cell line); 6 mcg/ml): 92
